#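 Results reflect a 48-hour exposure of cells in 96-well plates to compound at five concentrations. At the GI50, growth is halved.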 Calls of active or inactive are those of the source. Rule as the data show it: active = GI50 up to about 1.1 µM and inactive = higher.
# What was measured:
# Test in all cases: DTP human tumour cell line panel, 48 h
# A549 = system: A549
# SK-MEL-28 = system: SK-MEL-28
# SNB-19 = system: SNB-19
# OVCAR-8 = system: OVCAR-8
# SNB-75 = system: SNB-75
# HCT-116 = system: HCT-116
# SF-295 = system: SF-295
# HCC 2998 = system: HCC 2998
# Malme-3M = system: Malme-3M
# NCI-H226 = system: NCI-H226
# EKVX = system: EKVX
# HOP-62 = system: HOP-62
# CAKI-1 = system: CAKI-1
# MCF7 = system: MCF7
# SK-MEL-2 = system: SK-MEL-2
# OVCAR-3 = system: OVCAR-3
# SF-539 = system: SF-539
# LOX IMVI = system: LOX IMVI
# SK-MEL-5 = system: SK-MEL-5
# OVCAR-4 = system: OVCAR-4
# HOP-92 = system: HOP-92
# COLO 205 = system: COLO 205
# SF-268 = system: SF-268
# SN12C = system: SN12C
# KM-20L2 = system: KM-20L2
# DMS-114 = system: DMS-114
# IGROV-1 = system: IGROV-1
# NCI-H522 = system: NCI-H522
# MOLT-4 = system: MOLT-4
# A498 = system: A498
# CCRF-CEM = system: CCRF-CEM
# HCT-15 = system: HCT-15
# RXF 393 = system: RXF 393
# DLD-1 = system: DLD-1
# UO-31 = system: UO-31
# DMS-273 = system: DMS-273
# HOP-18 = system: HOP-18
# SNB-78 = system: SNB-78
# SK-OV-3 = system: SK-OV-3
# U-251 = system: U-251
# NCI-H460 = system: NCI-H460
# XF498 = system: XF498
# K562 = system: K562
# HT-29 = system: HT-29
# NCI-H23 = system: NCI-H23
# NCI/ADR-RES = system: NCI/ADR-RES
# KM12 = system: KM12
# OVCAR-5 = system: OVCAR-5
# UACC-62 = system: UACC-62
# RPMI-8226 = system: RPMI-8226
# UACC-257 = system: UACC-257
# SW-620 = system: SW-620
# HL-60 = system: HL-60
smiles,measurement,setting,value
CCCCC#CS(=O)(=O)C(F)(F)F,GI50,A549,> 78.9 µM (inactive)
same,GI50,SK-MEL-28,> 60 µM (inactive)
same,GI50,SNB-19,> 90.2 µM (inactive)
same,GI50,OVCAR-8,97.1 µM (inactive)
same,GI50,SNB-75,36.6 µM (inactive)
same,GI50,HCT-116,36 µM (inactive)
same,GI50,SF-295,20.3 µM (inactive)
same,GI50,HCC 2998,> 31.6 µM (inactive)
same,GI50,Malme-3M,> 100 µM (inactive)
same,GI50,NCI-H226,> 100 µM (inactive)
same,GI50,EKVX,> 100 µM (inactive)
same,GI50,HOP-62,> 61.5 µM (inactive)
same,GI50,CAKI-1,0.605 µM (active)
same,GI50,MCF7,52.6 µM (inactive)
same,GI50,SK-MEL-2,> 36.8 µM (inactive)
same,GI50,OVCAR-3,> 56.4 µM (inactive)
same,GI50,SF-539,> 100 µM (inactive)
same,GI50,LOX IMVI,60.7 µM (inactive)
same,GI50,SK-MEL-5,52.7 µM (inactive)
same,GI50,OVCAR-4,27.9 µM (inactive)
same,GI50,HOP-92,34.1 µM (inactive)
same,GI50,COLO 205,> 75.7 µM (inactive)
same,GI50,SF-268,> 72.4 µM (inactive)
same,GI50,SN12C,> 100 µM (inactive)
same,GI50,KM-20L2,81.5 µM (inactive)
same,GI50,DMS-114,37.2 µM (inactive)
same,GI50,IGROV-1,> 100 µM (inactive)
same,GI50,NCI-H522,36.1 µM (inactive)
same,GI50,MOLT-4,33.1 µM (inactive)
same,GI50,A498,44.9 µM (inactive)
same,GI50,CCRF-CEM,48.6 µM (inactive)
same,GI50,HCT-15,90.4 µM
same,GI50,RXF 393,20.4 µM (inactive)
same,GI50,DLD-1,> 100 µM (inactive)
same,GI50,UO-31,68.9 µM (inactive)
same,GI50,DMS-273,48 µM (inactive)
same,GI50,HOP-18,> 100 µM (inactive)
same,GI50,SNB-78,> 100 µM (inactive)
same,GI50,SK-OV-3,> 94.2 µM (inactive)
same,GI50,U-251,76.6 µM (inactive)
same,GI50,NCI-H460,> 92.5 µM (inactive)
same,GI50,XF498,56.9 µM (inactive)
same,GI50,K562,45.4 µM (inactive)
same,GI50,HT-29,22.4 µM (inactive)
same,GI50,NCI-H23,58.6 µM (inactive)
same,GI50,NCI/ADR-RES,47.3 µM (inactive)
same,GI50,KM12,> 83.9 µM (inactive)
same,GI50,OVCAR-5,> 100 µM (inactive)
same,GI50,UACC-62,48.2 µM (inactive)
same,GI50,RPMI-8226,47.4 µM (inactive)
same,GI50,UACC-257,12.9 µM (inactive)
same,GI50,SW-620,> 100 µM (inactive)
same,GI50,HL-60,23.2 µM (inactive)
